Entries after “also recorded” stand apart in the source; their conditions may differ.
Tests used:
[1] = test system: anterior primitive streak (APS) cells; experiment: Induction of anterior intermediate mesoderm cells from hiPSCs via anterior primitive streak (immunostaining, flow cytometry); type: cell-based, human; details: for effect on induction efficiency / differentiation of OSR1^+GATA3^+ cells: added to the anterior intermediate mesoderm induction stage, 10 ng/ml BMP4 or 0.1 μM LDN193189
Protocol: Undifferentiated hiPSCs/ESCs were plated at a density of 2.5×10^4 cells/cm^2 onto tissue culture plates in maintenance medium with 10 μM Y-27632 and iMatrix-511 silk. After 24 h, the cells were washed with PBS and treated with Essential 6 medium (Thermo Fisher Scientific) containing 100 ng/ml Activin A (R&D Systems) and 3 μM CHIR99021 (Stem RD) with or without 10 ng/ml bone morphogenetic protein (BMP)4 (PeproTech) for 24 h.
To induce anterior intermediate mesoderm, the anterior primitive streak cells were treated with 200 ng/ml fibroblast growth factor (FGF) 8 (Peprotech), 0.1 μM 4-[(E)-2-(5,6,7,8-Tetrahydro-5,5,8,8-tetramethyl-2-naphthalenyl)-1-propenyl]-benzoic acid (TTNPB; Santa Cruz Biotechnology), 1 μM A83-01 and 0.1 μM LDN193189 for 2 days. Then, the cells were replated onto Matrigel-coated plates at a density of 1×10^5 cells/cm^2 in the anterior intermediate mesoderm induction medium with 10 μM Y-27632 and incubated for an additional 24 h.
(§1) The cells were fixed with 4% PFA/PBS for 20 min at 4° C. After washing with PBS, the cells were blocked with 1% normal donkey serum (Millipore) and 3% bovine serum albumin (BSA; Nacalai Tesque)/PBST (PBS/0.25% Triton X-100) for 1 h at room temperature. Primary antibodies were diluted in blocking solution and incubated with samples overnight at 4° C. Secondary antibodies were incubated for 1 h at room temperature.
After dissociation with Accutase, the cells were fixed, permeabilized and blocked with a BD Cytofix/Cytoperm Kit (Becton Dickinson). Then the cells were incubated with primary antibodies diluted at 1:100 in blocking solution for 30 min at room temperature. After washing twice, the cells were incubated with secondary antibodies diluted at 1:500 in blocking solution for 30 min at room temperature. The cells were then analyzed using FACS AriaII cell sorter (Becton Dickinson).

[2] = test system: anterior intermediate mesoderm cells; experiment: Induction of Wolffian duct cells from anterior intermediate mesoderm cells (immunostaining, cell counts); type: cell-based, human; details: for differentiation of Wolffian duct cells (OSR1^−GATA3^+PAX2^+) from anterior intermediate mesoderm cells / Total cell numbers after treatment: 3D45 cells; for Total cell numbers after treatment: FIG. 2E, mean±s.d., n=3, before treatment 1.44±0.29; for number of GATA3^+ (Wolffian duct) cells: supplementation during Wolffian duct induction
Protocol: Anterior intermediate mesoderm cells were treated with Essential 6 medium containing 1 μM CHIR99021, 0.1 μM LDN193189, 200 ng/ml FGF8 and 100 ng/ml glial cell line-derived neurotrophic factor (GDNF; R&D Systems) with or without 0.1 μM TTNPB for 2 days to enhance Wolffian duct leading edge cell induction. Then, the cells were dissociated into single cells by gentle pipetting after treatment with Accutase (Innovative Cell Technologies). The cells were seeded onto low-attachment 96-well plates (Sumitomo Bakelite) at a density of 1×10^4 cells/well in Essential 6 medium with 100 ng/ml GDNF, 200 ng/ml FGF1 (R&D Systems), 0.1 μM TTNPB, 3 μM CHIR99021 and 10 μM Thiazovivin (Santa Cruz Biotechnology) and incubated for 2 days to induce mature Wolffian duct aggregates.
as §1

[3] = added to anterior intermediate mesoderm cells, immunostaining

For `Cc1cccc(-c2nn(C(=S)Nc3ccccc3)cc2-c2ccnc3ccccc23)n1` [A83-01, 3-(6-Methyl-2-pyridinyl)-N-phenyl-4-(4-quinolinyl)-1H-pyrazole-1-carbothioamide], the “differentiation of SOX17^+ definitive endoderm cells” value ([1]; 1 μM A83-01 added to FGF8 and TTNPB, immunostaining) was “diminished; also recorded: decreases the differentiation into definitive endoderm cells” and the “induction of anterior intermediate mesoderm-like cells (OSR1, GATA3 immunostaining)” value ([1]; treatment of APS cells) was “without inhibiting the induction of anterior intermediate mesoderm-like cells”.

In the case of `Cc1ccc(C2=CCC(C)(C)c3ccc(C#Cc4ccc(C(=O)O)cc4)cc32)cc1` [AGN193109], the “RET expression (Wolffian duct cell marker)” value [2, 3] is reported as “diminished RET expression; also recorded: decreased the expression of RET”.

For `Cc1c[nH]c(-c2cnc(NCCNc3ccc(C#N)cn3)nc2-c2ccc(Cl)cc2Cl)n1` [CHIR99021, 6-[2-[4-(2,4-Dichlorophenyl)-5-(4-methyl-1H-imidazol-2-yl)pyrimidin-2-ylamino]ethylamino]pyridine-3-carbonitrile], the “differentiation of Wolffian duct cells (OSR1^−GATA3^+PAX2^+) from anterior intermediate mesoderm cells” value (shortened to “differentiation of Wolffian duct cells”) ([2]; immunostaining) was “enhanced OSR1^−GATA3^+PAX2^− cell differentiation; also recorded: enhanced the differentiation”.

For `O=C(Nc1cccc2cccnc12)c1ccc(N2C(=O)[C@@H]3[C@H](C2=O)[C@@H]2C=C[C@H]3C2)cc1` [IWR-1], the “GATA3 and PAX2 expressions” value [2, 3] was “diminished GATA3 and PAX2 expressions”, the OSR1 expression [2, 3] was “prolonged OSR1 expression” and the “differentiation of Wolffian duct cells” value ([2]; immunostaining) was “inhibited the Wolffian duct induction”.

For `c1ccc2c(-c3cnn4cc(-c5ccc(N6CCNCC6)cc5)cnc34)ccnc2c1` [LDN193189, 4-(6-(4-(piperazin-1-yl)phenyl)pyrazolo[1,5-a]pyrimidin-3-yl)quinoline], the “effect on induction efficiency / differentiation of OSR1^+GATA3^+ cells” value [1] was “did not change the induction efficiency” and the “differentiation of Wolffian duct cells” value ([2]; immunostaining) was “enhanced the Wolffian duct induction”.

With `C/C(=C\c1ccc(C(=O)O)cc1)c1ccc2c(c1)C(C)(C)CCC2(C)C` [TTNPB, 4-[(E)-2-(5,6,7,8-Tetrahydro-5,5,8,8-tetramethyl-2-naphthalenyl)-1-propenyl]-benzoic acid] the “differentiation of Wolffian duct cells” value ([2]; immunostaining) was “early Wolffian duct cells were stably generated”.

B1: BMP4: bone morphogenetic protein (BMP)4 (PeproTech) (protein, UniProt P12644 293-408, looked up)
Bone morphogenetic protein 4: SPKHHSQRARKKNKNCRRHSLYVDFSDVGWNDWIVAPPGYQAFYCHGDCPFPLADHLNSTNHAIVQTLVNSVNSSIPKACCVPTELSAISMLYLDEYDKVVLKNYQEMVVEGCGCR
With B1 the “induction rates of GATA3^+ cells” value ([1]; FIG. 1H, 10 ng/ml BMP4 at APS induction stage, 0.1 μM LDN193189 at anterior IM induction stage, mean±s.d., n=4) was 69.1±13.9%, the “effect on induction efficiency / differentiation of OSR1^+GATA3^+ cells” value [1] was “inhibited the differentiation” and the “OSR1^+GATA3^+ cell induction rate” value ([1]; added to the anterior primitive streak induction stage) was “around 70 % of the total cells obtained”. For the same molecule, the “effect on OSR1^+GATA3^+ cell induction” value ([1]; added to the anterior primitive streak induction stage, 10 ng/ml BMP4, immunostaining) was “facilitated the OSR1^+GATA3^+ cell induction” and the “differentiation of Wolffian duct cells” value ([2]; immunostaining) was “suppressed Wolffian duct differentiation; also recorded: inhibited the differentiation of Wolffian duct cells”.

B2: FGF8: fibroblast growth factor (FGF) 8 (Peprotech) (protein, UniProt P55075 23-233, looked up)
Fibroblast growth factor 8: QEGPGRGPALGRELASLFRAGREPQGVSQQHVREQSLVTDQLSRRLIRTYQLYSRTSGKHVQVLANKRINAMAEDGDPFAKLIVETDTFGSRVRVRGAETGLYICMNKKGKLIAKSNGKGKDCVFTEIVLENNYTALQNAKYEGWYMAFTRKGRPRKGSKTRQHQREVHFMKRLPRGHHTTEQSLRFEFLNYPPFTRSLRGSQRTWAPEPR
For B2, the “Total cell numbers after treatment” value [2] was 4.69±0.65 ×10^5/cm^2, the “differentiation of Wolffian duct cells” value ([2]; immunostaining) was “enhanced the Wolffian duct induction” and the “number of GATA3^+ (Wolffian duct) cells” value [2] was “increased the number of GATA3^+ cells”.

B3: GDNF: glial cell line-derived neurotrophic factor (R&D Systems) (protein, UniProt P39905 78-211, looked up)
Glial cell line-derived …: SPDKQMAVLPRRERNRQAAAANPENSRGKGRRGQRGKNRGCVLTAIHLNVTDLGLGYETKEELIFRYCSGSCDAAETTYDKILKNLSRNRRLVSDKVGQACCRPIAFDDDLSFLDDNLVYHILRKHSAKRCGCI
With B3 the “Total cell numbers after treatment” value [2] was 2.37±0.56 ×10^5/cm^2 and the “number of GATA3^+ (Wolffian duct) cells” value [2] was “increased the number of GATA3^+ Wolffian duct cells”.

— patent US12565640B2, “Method for inducing ureteric bud-like tissue” (Kyoto University, priority 2017, dated 2026)
